The text below walks through data of US20250101003A1, “SPIROCYCLIC CAV2.3 ANTAGONISTS” (LARIO THERAPEUTICS LIMITED, priority 2021, published 2025).

For this assay, the target named is Cav2.3 (Homo sapiens, UniProt Q15878). Description: Human Cav2.3 channel calcium-influx assay. The assay is classed as cell-based. Conditions: HEK-293 T-Rex/Kir2.1/Cav2.3e-β4-α2δ1 cells, Fluo8 fluorescence, without pluronic acid; read-out: Cav2.3 (pIC50) (converted). The method, then:
HEK-293 T-Rex cells were transfected with pcDNA3.1-Kir2.1 to generate a stable cell line. After antibiotic selection, the obtained stable pools were analysed using FLIPR^TETRA (membrane potential assay), and a limiting dilution was performed and a HEK-293 T-Rex/Kir2.1 clone was selected. The clone was transfected with pcDNA3.1-Cav2.3e and pBud-Cav-β4-α2δ1 to generate a stable cell line where the Cav2.3e expression is inducible. After antibiotic selection, functional clone pool analysis and two successive limiting dilutions, the final clone underwent a qPCR analysis and a biophysical and pharmacological validation using patch-clamp.
A compound plate, containing 10 test compounds in eight-points dose response with n=4, was prepared. Test compounds dose response curves were prepared in automated fashion in 100% DMSO at CyBio Felix and starting from a stock solution in 100% DMSO; a defined volume was serially moved into destination wells pre-filled with the desired DMSO volume; stock solution concentration volumes were dependent on the final compounds concentrations to be tested and the final DMSO content used in the assay. For the assay test compounds dose response curves ranged from 30 μM and half log dilution with 0.3% final DMSO. In order to obtain the 8-points dose response curve all the concentrations were created by starting from a 10 mM DMSO stock solution and then moving 9.5 μL into a destination well pre-filled with 20.5 μL of 100% DMSO and repeating this step seven times. This initial step was done into 96 MTP plates, 10 compounds/plate. One 384 MTP was then reformatted to contain all the 10 compounds at 8 concentrations, quadruplicate data points. This so obtained 384 MTP compound plate served as source plate in a “mother to child” process with a CyBi®-Well dispenser in which 0.7 μL of compounds were moved into a destination plate pre-filled with 57.6 μL of Tyrode's buffer 0 mM K+, thus obtaining 4× concentrated compounds solution. In columns 1-2 and 23-24 the control wells were added. Both “source” compound plate and “destination” compound plate were barcoded and a relationship between the two plates was thus generated.
The day before the experiment, cells were detached by gentle wash with DPBS, followed by 5 min incubation at 37° C. with Trypsin solution. Detached cells were diluted with OptiMEM+Doxycycline at 0.2 μg/mL, counted and plated in Poly-D-Lysine coated black/clear bottom (15.000 c/well in 20 μl/well) by the use of a MATRIX WellMate dispenser. Plates were placed into a humidified incubator at 37° C. with 5% CO2 until the experimental day. 24 h after seeding 10 μL/well of 1.5× Fluo8 NW dye solution prepared in Tyrode's buffer 0 mM K^+ were added on top of the seeding medium. Cell plates were incubated for 40-60 min at RT in the dark. We then Injected off-line 10 μL/well of test compounds and controls 4× concentrated in Tyrode's Buffer 0 mM K+ with the CyBi®-Well instrument. Cell plates were incubated 3 minutes at RT. Finally, we injected 20 μL/well of 3× concentrated activator solution (K20-Na130-Ca2 buffer: 20 mM KCl, 130 mM NaCl, 2 mM CaCl2, 10 mM HEPES, 10 mM Glucose, final concentrations, prepared starting from “KO-Na150-Ca2” and “K150-Na0-Ca2” buffers) at FDSS7000EX instrument and read emitted fluorescence for 130 seconds.
Data analysis was performed with Genedata Screener® software and reported compounds activity as % effect in relation to the normalization standards. The Kinetic Response Value (KRV) is calculated as follows:
KRV=Maximal fluorescence recorded from second 5 to second 130 minus baseline fluorescence, computed as average from second 1 to second 2, of the kinetic trace. The KRV was normalized versus Neutral Controls and Inhibitor Controls in order to obtain the Activity[%] for each well. […] Therefore, the compound activity values were scaled (based on the two references) to a common range (two-point normalization). […]

Sequence of Cav2.3 (Q15878 1-747 limits assumed): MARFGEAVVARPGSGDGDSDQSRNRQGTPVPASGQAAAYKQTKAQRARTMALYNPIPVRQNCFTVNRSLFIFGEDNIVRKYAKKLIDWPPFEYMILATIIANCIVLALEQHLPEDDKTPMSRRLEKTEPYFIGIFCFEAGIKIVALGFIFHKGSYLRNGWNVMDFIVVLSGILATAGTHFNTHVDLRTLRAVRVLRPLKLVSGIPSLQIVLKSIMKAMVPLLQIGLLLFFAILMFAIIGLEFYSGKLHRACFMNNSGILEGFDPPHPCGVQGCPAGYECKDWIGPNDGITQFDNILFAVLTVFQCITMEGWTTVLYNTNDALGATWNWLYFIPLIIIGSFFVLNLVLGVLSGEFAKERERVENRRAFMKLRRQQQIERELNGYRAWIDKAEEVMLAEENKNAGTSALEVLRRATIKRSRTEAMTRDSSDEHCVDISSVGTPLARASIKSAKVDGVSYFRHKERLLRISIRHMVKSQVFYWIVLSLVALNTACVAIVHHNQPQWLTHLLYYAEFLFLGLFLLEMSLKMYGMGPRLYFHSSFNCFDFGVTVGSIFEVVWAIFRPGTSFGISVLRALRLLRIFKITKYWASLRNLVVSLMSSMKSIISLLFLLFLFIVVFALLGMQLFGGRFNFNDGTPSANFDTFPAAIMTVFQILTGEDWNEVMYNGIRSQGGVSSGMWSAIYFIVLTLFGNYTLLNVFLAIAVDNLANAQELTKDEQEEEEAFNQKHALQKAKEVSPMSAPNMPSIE
Sequence of Cav2.3 (Q15878 1126-2313 limits assumed): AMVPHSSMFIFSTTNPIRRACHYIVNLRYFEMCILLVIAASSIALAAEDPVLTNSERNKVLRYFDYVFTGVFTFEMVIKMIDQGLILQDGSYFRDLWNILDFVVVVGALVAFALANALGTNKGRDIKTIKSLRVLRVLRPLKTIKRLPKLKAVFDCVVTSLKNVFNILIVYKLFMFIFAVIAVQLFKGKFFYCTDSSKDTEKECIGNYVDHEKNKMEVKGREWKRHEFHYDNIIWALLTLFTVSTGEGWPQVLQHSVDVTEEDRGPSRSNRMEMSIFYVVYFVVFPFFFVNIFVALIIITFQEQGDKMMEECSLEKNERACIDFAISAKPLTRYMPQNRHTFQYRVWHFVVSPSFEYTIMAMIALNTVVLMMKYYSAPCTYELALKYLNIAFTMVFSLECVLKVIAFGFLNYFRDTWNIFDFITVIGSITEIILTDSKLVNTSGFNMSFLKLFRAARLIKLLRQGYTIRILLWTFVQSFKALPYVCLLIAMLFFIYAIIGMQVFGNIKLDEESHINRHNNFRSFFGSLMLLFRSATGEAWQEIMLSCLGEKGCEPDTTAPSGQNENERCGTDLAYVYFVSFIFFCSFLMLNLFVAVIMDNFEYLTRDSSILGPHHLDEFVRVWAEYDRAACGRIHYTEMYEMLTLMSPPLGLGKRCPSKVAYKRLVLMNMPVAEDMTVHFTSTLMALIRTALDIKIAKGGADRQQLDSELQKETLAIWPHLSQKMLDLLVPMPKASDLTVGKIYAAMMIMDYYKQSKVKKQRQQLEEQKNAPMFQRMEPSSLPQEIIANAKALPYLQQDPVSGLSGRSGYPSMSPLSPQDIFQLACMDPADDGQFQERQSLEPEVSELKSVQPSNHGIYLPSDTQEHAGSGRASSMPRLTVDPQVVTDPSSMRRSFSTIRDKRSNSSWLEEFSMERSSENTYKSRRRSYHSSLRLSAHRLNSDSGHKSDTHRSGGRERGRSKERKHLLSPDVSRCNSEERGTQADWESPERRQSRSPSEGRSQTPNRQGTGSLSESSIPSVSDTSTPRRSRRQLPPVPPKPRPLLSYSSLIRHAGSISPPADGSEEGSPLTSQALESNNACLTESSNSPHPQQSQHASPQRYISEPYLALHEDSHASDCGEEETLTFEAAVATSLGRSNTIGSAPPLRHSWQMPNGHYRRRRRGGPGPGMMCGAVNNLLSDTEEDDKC

Turning to `Cc1ccnc2cc(S(=O)(=O)N3CC4(CCC4)CC3C)ccc12` (stereo not drawn) [Example 80, 4-Methyl-7-((7-methyl-6-azaspiro[3.4]octan-6-yl)sulfonyl)quinoline], the IC50 was 2.82 µM. In the case of `CC1(C)CC2(CCC2)CN1S(=O)(=O)c1ccsc1` [Example 49, 7,7-Dimethyl-6-(thiophen-3-ylsulfonyl)-6-azaspiro[3.4]octane], the IC50 is 3.89 µM. As for `CC1CC2(CCC2)CN1S(=O)(=O)c1ccc2c(c1)CCN(Cc1ccccc1)C2` (stereo not drawn) [Example 25, 2-Benzyl-6-((7-methyl-6-azaspiro[3.4]octan-6-yl)sulfonyl)-1,2,3,4-tetrahydroisoquinoline], the figure is 2.95 µM; as for `CC1CC2(CCC2)CN1S(=O)(=O)c1ccc2ccoc2c1` (single isomer, unassigned) [Example 16, 6-(Benzofuran-6-ylsulfonyl)-7-methyl-6-azaspiro[3.4]octane], 4.79 µM. As for `CC1CC2(CCC2)CN1S(=O)(=O)c1ccc2c(c1)OCCO2` (stereo not drawn) [Example 5, 6-((2,3-Dihydrobenzo[b][1,4]dioxin-6-yl)sulfonyl)-7-methyl-6-azaspiro[3.4]octane], the figure is 2.95 µM; as for `CCC1CC2(CCC2)CN1S(=O)(=O)c1cccs1` (stereo not drawn) [Example 69, 7-Ethyl-6-(thiophen-2-ylsulfonyl)-6-azaspiro[3.4]octane], 2.51 µM; as for `CC1CC2(CCC2)CN1S(=O)(=O)c1cc(-c2ccccc2)cs1` (stereo not drawn) [Example 44, 7-Methyl-6-((4-phenylthiophen-2-yl)sulfonyl)-6-azaspiro[3.4]octane], 6.76 µM.

`CC1CC2(CCC2)CN1S(=O)(=O)c1ccc2ccoc2c1` (single isomer, unassigned) [Example 17, 6-(benzofuran-6-ylsulfonyl)-7-methyl-6-azaspiro[3.4]octane]: the IC50 was 1.32 µM.

Consider `CCC1CC2(CCC2)CN1S(=O)(=O)c1ccc2c(c1)S(=O)(=O)CC2` (single isomer, unassigned) [Example 62, 6-((7-Ethyl-6-azaspiro[3.4]octan-6-yl)sulfonyl)-2,3-dihydrobenzo[b]thiophene 1,1-dioxide], for which the IC50 was 0.676 µM.

`Cc1nc(C)c(S(=O)(=O)N2CC3(CCC3)CC2C)s1` (single isomer, unassigned) [Example 107, 2,4-dimethyl-5-((7-methyl-6-azaspiro[3.4]octan-6-yl)sulfonyl)thiazole]: the IC50 was 6.76 µM. As for `CC1CC2(CCC2)CN1S(=O)(=O)c1cccc2c1CN(C(=O)C(F)(F)F)CC2` (stereo not drawn) [Example 85, 2,2,2-Trifluoro-1-(8-((7-methyl-6-azaspiro[3.4]octan-6-yl)sulfonyl)-3,4-dihydroisoquinolin-2(1H)-yl)ethan-1-one], the IC50 was 19.1 µM. With `O=S(=O)(c1cccs1)N1CC2(CCCC2)CC1C1CCCCC1` (stereo not drawn) [Example 75, 3-Cyclohexyl-2-(thiophen-2-ylsulfonyl)-2-azaspiro[4.4]nonane], the IC50 was 37.2 µM. The same measure for `CC1CC2(CCC2)CN1S(=O)(=O)c1ccc2c(c1)CN(C(=O)C(F)(F)F)CC2` (stereo not drawn) [Example 18, 2,2,2-Trifluoro-1-(7-((7-methyl-6-azaspiro[3.4]octan-6-yl)sulfonyl)-3,4-dihydroisoquinolin-2(1H)-yl)ethan-1-one]: 2.45 µM; for `CCC1CC2(CCC2)CN1S(=O)(=O)c1ccc2c(c1)S(=O)(=O)CC2` (single isomer, unassigned) [Example 63, 6-((7-ethyl-6-azaspiro[3.4]octan-6-yl)sulfonyl)-2,3-dihydrobenzo[b]thiophene 1,1-dioxide]: 5.62 µM; for `CC1CC2(CCC2)CN1S(=O)(=O)c1ccccn1` (stereo not drawn) [Example 48, 7-Methyl-6-(pyridin-2-ylsulfonyl)-6-azaspiro[3.4]octane]: 15.8 µM.

For the molecule `CC1CC2(CCC2)CN1S(=O)(=O)c1ccc2ccoc2c1` (stereo not drawn) [Example 15, 6-(Benzofuran-6-ylsulfonyl)-7-methyl-6-azaspiro[3.4]octane], the IC50 is 1.86 µM. As for `CC1CC2(CCC2)CN1S(=O)(=O)c1ccc2c(c1)CN(C(=O)C(F)(F)F)CC2` (single isomer, unassigned) [Example 20, 2,2,2-trifluoro-1-(7-((7-methyl-6-azaspiro[3.4]octan-6-yl)sulfonyl)-3,4-dihydroisoquinolin-2(1H)-yl)ethan-1-one], the figure is 4.27 µM; as for `Cc1ccc(S(=O)(=O)N2CC3(CCC3)CC2C)o1` (single isomer, unassigned) [Example 55, 7-methyl-6-((5-methylfuran-2-yl)sulfonyl)-6-azaspiro[3.4]octane], 4.07 µM; as for `CCC1CC2(CCCC2)CN1S(=O)(=O)c1ccc2c(c1)CN(C(=O)C(F)(F)F)CC2` (stereo not drawn) [Example 101, 1-(7-((3-Ethyl-2-azaspiro[4.4]nonan-2-yl)sulfonyl)-3,4-dihydroisoquinolin-2(1H)-yl)-2,2,2-trifluoroethan-1-one], 2.45 µM.

In the case of `CC1CC2(CCC2)CN1S(=O)(=O)c1cncc(C#N)c1` (stereo not drawn) [Example 111, 5-((7-methyl-6-azaspiro[3.4]octan-6-yl)sulfonyl)nicotinonitrile], the IC50 was 1.95 µM. The same measure for `CC1CC2(CCC2)CN1S(=O)(=O)c1ncccn1` (stereo not drawn) [Example 14, 7-Methyl-6-(pyrimidin-2-ylsulfonyl)-6-azaspiro[3.4]octane]: 46.8 µM. The same measure for `CCOc1ccc2nc(S(=O)(=O)N3CC4(CCC4)CC3C)sc2c1` (stereo not drawn) [Example 96, 6-Ethoxy-2-((7-methyl-6-azaspiro[3.4]octan-6-yl)sulfonyl)benzo[d]thiazole]: 9.33 µM; for `CCc1ncsc1S(=O)(=O)N1CC2(CCC2)CC1C` (stereo not drawn) [Example 64, 4-Ethyl-5-((7-methyl-6-azaspiro[3.4]octan-6-yl)sulfonyl)thiazole]: 3.72 µM; for `CCC1CC2(CCC2)CN1S(=O)(=O)c1ccnc(OC)c1` (stereo not drawn) [Example 87, 7-Ethyl-6-((2-methoxypyridin-4-yl)sulfonyl)-6-azaspiro[3.4]octane]: 2 µM. `CCC1CC2(CCCC2)CN1S(=O)(=O)c1cccs1` (stereo not drawn) [Example 97, 3-Ethyl-2-(thiophen-2-ylsulfonyl)-2-azaspiro[4.4]nonane]: the IC50 was 2.51 µM. As for `CC1CC2(CCC2)CN1S(=O)(=O)c1nccn1C` (stereo not drawn) [Example 3, 7-Methyl-6-((1-methyl-1H-imidazol-2-yl)sulfonyl)-6-azaspiro[3.4]octane], the figure is 30.2 µM; as for `CCC1CC2(CCC2)CN1S(=O)(=O)c1ccco1` (stereo not drawn) [Example 72, 7-Ethyl-6-(furan-2-ylsulfonyl)-6-azaspiro[3.4]octane], 4.37 µM; as for `CC1CC2(CCC2)CN1S(=O)(=O)c1cc2oc(=O)[nH]c2cc1Cl` (single isomer, unassigned) [Example 57, 5-Chloro-6-((7-methyl-6-azaspiro[3.4]octan-6-yl)sulfonyl)benzo[d]oxazol-2(3H)-one], 5.13 µM. As for `O=S(=O)(c1cccs1)N1CC2(CCC2)CC1CO` (stereo not drawn) [Example 42, (6-(Thiophen-2-ylsulfonyl)-6-azaspiro[3.4]octan-7-yl)methanol], the figure is 24.5 µM. As for `CC1CC2(CCC2)CN1S(=O)(=O)c1ccncc1` (single isomer, unassigned) [Example 12, 7-Methyl-6-(pyridin-4-ylsulfonyl)-6-azaspiro[3.4]octane], the IC50 is 6.61 µM.
